Assay results reported in ChEMBL document CHEMBL1201862, “PubChem BioAssay data set” (2004).
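Protocol summary: plate cells (96-well), add compound at 5 concentrations, incubate 48 h, interpolate endpoints linearly. GI50: concentration for 50% inhibition of growth.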 Calls of active or inactive are those of the source. Cut-off read from the data, not from the text of the source: active = GI50 up to about 1.1 µM and inactive = higher.

Legend:
Test in all cases: NCI tumour cell line growth inhibition, 48 h
TK-10 = test system: TK-10
OVCAR-8 = test system: OVCAR-8
SN12C = test system: SN12C
HOP-62 = test system: HOP-62
SK-MEL-2 = test system: SK-MEL-2
NCI-H460 = test system: NCI-H460
UACC-257 = test system: UACC-257
LOX IMVI = test system: LOX IMVI
NCI-H23 = test system: NCI-H23
NCI-H226 = test system: NCI-H226
RPMI-8226 = test system: RPMI-8226
OVCAR-5 = test system: OVCAR-5
ACHN = test system: ACHN
UACC-62 = test system: UACC-62
SF-268 = test system: SF-268
HL-60 = test system: HL-60

Measured: GI50

COc1cc(C(C)c2cc3c(cc2OCCCCOc2cc4c(cc2C(C)c2cc(OC)c(OC)c(OC)c2)OCO4)OCO3)cc(OC)c1OC (configuration not stated)
inactive: TK-10 > 100 µM | OVCAR-8 34.8 µM | SN12C 29.6 µM | HOP-62 37.4 µM | SK-MEL-2 42.3 µM | NCI-H460 45.3 µM | UACC-257 84.7 µM | LOX IMVI > 100 µM | NCI-H23 40.4 µM | NCI-H226 31.5 µM | RPMI-8226 25.5 µM | OVCAR-5 > 100 µM | ACHN 69.5 µM | UACC-62 21.1 µM | SF-268 51.5 µM | HL-60 37.8 µM

S=c1nc2c(c[nH]1)C1c3ccccc3C2c2ccccc21
inactive: TK-10 > 100 µM | OVCAR-8 > 100 µM | SN12C > 100 µM | HOP-62 > 100 µM | SK-MEL-2 57.7 µM | NCI-H460 > 100 µM | LOX IMVI > 100 µM | NCI-H23 > 100 µM | NCI-H226 > 100 µM | RPMI-8226 35.9 µM | OVCAR-5 > 100 µM | ACHN 61.2 µM | UACC-62 59.6 µM | SF-268 > 100 µM | HL-60 28.3 µM

Oc1cc(-c2c[nH]c3ccccc23)nc2cc3c(cc12)OCO3
inactive: TK-10 > 100 µM | OVCAR-8 > 10 µM | SN12C > 100 µM | HOP-62 84.3 µM | SK-MEL-2 > 100 µM | NCI-H460 > 100 µM | UACC-257 > 100 µM | LOX IMVI > 100 µM | NCI-H23 > 100 µM | NCI-H226 > 100 µM | RPMI-8226 > 100 µM | ACHN > 100 µM | UACC-62 66.8 µM | SF-268 > 100 µM | HL-60 > 100 µM

N#Cc1cccc(/C=N/C23CC4CC(CC(C4)C2)C3)c1
inactive: TK-10 > 100 µM | OVCAR-8 > 100 µM | SN12C > 100 µM | HOP-62 > 100 µM | SK-MEL-2 > 100 µM | NCI-H460 > 100 µM | UACC-257 > 100 µM | LOX IMVI > 100 µM | NCI-H23 > 100 µM | NCI-H226 > 100 µM | RPMI-8226 52.2 µM | OVCAR-5 > 100 µM | ACHN > 100 µM | UACC-62 > 100 µM | SF-268 > 100 µM | HL-60 21.3 µM

c1cc2c(cnc3cscc32)s1
inactive: TK-10 > 100 µM | OVCAR-8 > 100 µM | SN12C > 100 µM | HOP-62 > 100 µM | SK-MEL-2 > 100 µM | NCI-H460 > 100 µM | UACC-257 > 100 µM | LOX IMVI > 100 µM | NCI-H23 > 100 µM | NCI-H226 > 100 µM | RPMI-8226 > 100 µM | OVCAR-5 > 100 µM | ACHN > 100 µM | SF-268 > 100 µM | HL-60 > 100 µM
